Results published in US8952024B2, “Herbicidal pyrimidone derivatives” (E I du Pont de Nemours and Company, priority 2009, dated 2015).

Columns and labels:
Type in all cases: in vivo
[1] = tested on: giant foxtail (Setaria faberii); assay: Test A pre-/postemergence plant response
From the text: (§1) Seeds of barnyardgrass (Echinochloa crus-galli), large crabgrass (Digitaria sanguinalis), giant foxtail (Setaria faberii), morningglory (Ipomoea spp.), pigweed (Amaranthus retroflexus), velvetleaf (Abutilon theophrasti), wheat (Triticum aestivum) and corn (Zea mays) were planted into a blend of loam soil and sand and treated preemergence with a directed soil spray using test chemicals formulated in a non-phytotoxic solvent mixture which included a surfactant. At the same time these species were also treated with postemergence applications of test compounds formulated in the same manner.
(§2) Plants ranged in height from two to ten cm and were in the one- to two-leaf stage for the postemergence treatment. Treated plants and untreated controls were maintained in a greenhouse for approximately ten days, after which time all treated plants were compared to untreated controls and visually evaluated for injury. Plant response ratings, summarized in Table A, are based on a 0 to 100 scale where 0 is no effect and 100 is complete control. A dash (-) response means no test result.

[2] = tested on: barnyardgrass (Echinochloa crus-galli); assay: Test A pre-/postemergence plant response
From the text: as §1, §2

[3] = tested on: pigweed (Amaranthus retroflexus); assay: Test A pre-/postemergence plant response
From the text: as §1, §2

[4] = tested on: wheat (Triticum aestivum); assay: Test A pre-/postemergence plant response
From the text: as §1, §2

[5] = tested on: morningglory (Ipomoea spp.); assay: Test A pre-/postemergence plant response
From the text: as §1, §2

[6] = tested on: velvetleaf (Abutilon theophrasti); assay: Test A pre-/postemergence plant response
From the text: as §1, §2

[7] = tested on: large crabgrass (Digitaria sanguinalis); assay: Test A pre-/postemergence plant response
From the text: as §1, §2

[8] = tested on: corn (Zea mays); assay: Test A pre-/postemergence plant response
From the text: as §1, §2

[9] = tested on: barnyardgrass (Echinochloa crus-galli); assay: Test B flooded paddy test; details: for Plant response rating, Barnyardgrass: Flood (flooded paddy test), 13 to 15 days; for Plant response rating, Flood, Barnyardgrass: 250 g ai/ha, flooded paddy test, visual rating on 0 to 100 scale (0 no effect, 100 complete control) after 13 to 15 days
From the text: (§3) Plant species in the flooded paddy test consisted of rice (Oryza sativa), umbrella sedge (Cyperus difformis), ducksalad (Heteranthera limosa) and barnyardgrass (Echinochloa crus-galli) grown to the 2-leaf stage for testing. At the time of treatment, test pots were flooded with water to 3 cm above the soil surface, treated by application of test compounds directly to the paddy water, and then maintained at that water depth for the duration of the test.
(§4) Treated plants and controls were maintained in a greenhouse for 13 to 15 days, after which time all treated plants were visually evaluated and compared to controls. Plant response ratings, summarized in Table B, are based on a scale of 0 to 100 where 0 is no effect and 100 is complete control. A dash (-) response means no test result.

[10] = tested on: rice (Oryza sativa); assay: Test B flooded paddy test; details: for Plant response rating, Rice: Flood (flooded paddy test), 13 to 15 days; for Plant response rating, Flood, Rice: 250 g ai/ha, flooded paddy test, visual rating on 0 to 100 scale (0 no effect, 100 complete control) after 13 to 15 days
From the text: as §3, §4

[11] = tested on: ducksalad (Heteranthera limosa); assay: Test B flooded paddy test; details: for Plant response rating, Ducksalad: Flood (flooded paddy test), 13 to 15 days; for Plant response rating, Flood, Ducksalad: 250 g ai/ha, flooded paddy test, visual rating on 0 to 100 scale (0 no effect, 100 complete control) after 13 to 15 days
From the text: as §3, §4

[12] = tested on: umbrella sedge (Cyperus difformis); assay: Test B flooded paddy test; details: for Plant response rating, Sedge, Umbrella: Flood (flooded paddy test), 13 to 15 days; for Plant response rating, Flood, Sedge, Umbrella: 250 g ai/ha, flooded paddy test, visual rating on 0 to 100 scale (0 no effect, 100 complete control) after 13 to 15 days
From the text: as §3, §4

[13] = Postemergence, 125 g ai/ha, 0 to 100 scale where 0 is no effect and 100 is complete control
[14] = Postemergence, 500 g ai/ha, visual injury, 0 to 100 scale (0 no effect, 100 complete control), approx. ten days
[15] = Preemergence, 125 g ai/ha, 0 to 100 scale, 0 = no effect, 100 = complete control
[16] = Preemergence, 500 g ai/ha, 0 to 100 scale, 0 = no effect, 100 = complete control
[17] = 125 g ai/ha, scale 0 to 100, 0 is no effect, 100 is complete control
[18] = Flood, 31 g ai/ha, scale 0 to 100 (0 no effect, 100 complete control)
[19] = Postemergence, 125 g ai/ha, visual injury, 0 to 100 scale (0 no effect, 100 complete control), approx. ten days
[20] = Postemergence, 500 g ai/ha, 0 to 100 scale, 0 = no effect, 100 = complete control, approx. ten days
[21] = Preemergence, 500 g ai/ha, visual injury, 0 to 100 scale (0 no effect, 100 complete control), approx. ten days
[22] = 31 g ai/ha, scale of 0 to 100 where 0 is no effect and 100 is complete control
[23] = 62 g ai/ha, scale 0 to 100, 0 is no effect, 100 is complete control

O=C1CCCC(O)=C1C(=O)c1cnc(-c2ccccc2)n(C2CC[S+]([O-])CC2)c1=O (mixture of isomers) [Compound 168, 5-[(2-hydroxy-6-oxo-1-cyclohexen-1-yl)carbonyl]-2-phenyl-3-(cis/trans-tetrahydro-1-oxido-2H-thiopyran-4-yl)-4(3H)-pyrimidinone]
Plant response rating, Foxtail, Giant [1, 13]: 50 | Foxtail, Giant plant response rating [1, 14]: 90 | Plant response rating, Foxtail, Giant [1, 15]: 10 | Plant response rating, Foxtail, Giant [1, 16]: 70 | Plant response rating, Barnyardgrass [2, 13]: 30 | Barnyardgrass plant response rating [2, 14]: 100 | Plant response rating, Barnyardgrass [2, 15]: 0 | Plant response rating, Barnyardgrass [2, 16]: 20 | Plant response rating, Pigweed [3, 13]: 100 | Pigweed plant response rating [3, 14]: 100 | Plant response rating, Pigweed [3, 15]: 10 | Plant response rating, Pigweed [3, 16]: 50 | Plant response rating, Wheat [4, 13]: 0 | Wheat plant response rating [4, 14]: 50 | Plant response rating, Wheat [4, 15]: 0 | Plant response rating, Wheat [4, 16]: 0 | Plant response rating, Morningglory [5, 13]: 100 | Morningglory plant response rating [5, 14]: 100 | Plant response rating, Morningglory [5, 15]: 0 | Plant response rating, Morningglory [5, 16]: 70 | Plant response rating, Velvetleaf [6, 13]: 100 | Velvetleaf plant response rating [6, 14]: 100 | Plant response rating, Velvetleaf [6, 15]: 0 | Plant response rating, Velvetleaf [6, 16]: 60 | Plant response rating, Crabgrass, Large [7, 13]: 50 | Crabgrass, Large plant response rating [7, 14]: 90 | Plant response rating, Crabgrass, Large [7, 15]: 30 | Plant response rating, Crabgrass, Large [7, 16]: 80 | Plant response rating, Corn [8, 13]: 20 | Corn plant response rating [8, 14]: 30 | Plant response rating, Corn [8, 15]: 0 | Plant response rating, Corn [8, 16]: 0 | Plant response rating, Barnyardgrass [9, 17]: 0 | Barnyardgrass plant response rating [9, 18]: 0 | Plant response rating, Rice [10, 17]: 0 | Rice plant response rating [10, 18]: 0 | Plant response rating, Ducksalad [11, 17]: 30 | Ducksalad plant response rating [11, 18]: 0 | Plant response rating, Sedge, Umbrella [12, 17]: 20 | Sedge, Umbrella plant response rating [12, 18]: 0

CCn1ncc(C(=O)c2cnc(-c3ccccc3)n(-c3ccccc3)c2=O)c1OS(=O)(=O)c1ccc(C)cc1 [Compound 16]
Foxtail, Giant plant response rating [1, 19]: 30 | Plant response rating, Foxtail, Giant [1, 20]: 70 | Plant response rating, Foxtail, Giant [1, 15]: 30 | Plant response rating, Foxtail, Giant [1, 21]: 70 | Barnyardgrass plant response rating [2, 19]: 20 | Plant response rating, Barnyardgrass [2, 20]: 60 | Plant response rating, Barnyardgrass [2, 15]: 0 | Plant response rating, Barnyardgrass [2, 21]: 70 | Pigweed plant response rating [3, 19]: 50 | Plant response rating, Pigweed [3, 20]: 70 | Plant response rating, Pigweed [3, 15]: 30 | Plant response rating, Pigweed [3, 21]: 50 | Wheat plant response rating [4, 19]: 0 | Plant response rating, Wheat [4, 20]: 10 | Plant response rating, Wheat [4, 15]: 0 | Plant response rating, Wheat [4, 21]: 0 | Morningglory plant response rating [5, 19]: 10 | Plant response rating, Morningglory [5, 20]: 20 | Plant response rating, Morningglory [5, 15]: 0 | Plant response rating, Morningglory [5, 21]: 0 | Velvetleaf plant response rating [6, 19]: 70 | Plant response rating, Velvetleaf [6, 20]: 100 | Plant response rating, Velvetleaf [6, 15]: 0 | Plant response rating, Velvetleaf [6, 21]: 40 | Crabgrass, Large plant response rating [7, 19]: 10 | Plant response rating, Crabgrass, Large [7, 20]: 40 | Plant response rating, Crabgrass, Large [7, 15]: 40 | Plant response rating, Crabgrass, Large [7, 21]: 70 | Corn plant response rating [8, 19]: 0 | Plant response rating, Corn [8, 20]: 20 | Plant response rating, Corn [8, 15]: 0 | Plant response rating, Corn [8, 21]: 20 | Plant response rating, Flood, Barnyardgrass [9]: 10 | Plant response rating, Barnyardgrass [9, 22]: 0 | Plant response rating, Barnyardgrass [9, 23]: 0 | Plant response rating, Barnyardgrass [9, 17]: 0 | Plant response rating, Flood, Rice [10]: 10 | Plant response rating, Rice [10, 22]: 0 | Plant response rating, Rice [10, 23]: 0 | Plant response rating, Rice [10, 17]: 0 | Plant response rating, Flood, Ducksalad [11]: 75 | Plant response rating, Ducksalad [11, 22]: 0 | Plant response rating, Ducksalad [11, 23]: 40 | Plant response rating, Ducksalad [11, 17]: 75 | Plant response rating, Flood, Sedge, Umbrella [12]: 50 | Plant response rating, Sedge, Umbrella [12, 22]: 0 | Plant response rating, Sedge, Umbrella [12, 23]: 0 | Plant response rating, Sedge, Umbrella [12, 17]: 40

O=C1CCCC(O)=C1C(=O)c1cnc(-c2ccccc2)n(-c2cccc(F)c2)c1=O [Compound 22]
Foxtail, Giant plant response rating [1, 19]: 30 | Plant response rating, Foxtail, Giant [1, 20]: 80 | Plant response rating, Foxtail, Giant [1, 15]: 20 | Plant response rating, Foxtail, Giant [1, 21]: 80 | Barnyardgrass plant response rating [2, 19]: 10 | Plant response rating, Barnyardgrass [2, 20]: 70 | Plant response rating, Barnyardgrass [2, 15]: 10 | Plant response rating, Barnyardgrass [2, 21]: 100 | Pigweed plant response rating [3, 19]: 80 | Plant response rating, Pigweed [3, 20]: 100 | Plant response rating, Pigweed [3, 15]: 70 | Plant response rating, Pigweed [3, 21]: 90 | Wheat plant response rating [4, 19]: 0 | Plant response rating, Wheat [4, 20]: 0 | Plant response rating, Wheat [4, 15]: 0 | Plant response rating, Wheat [4, 21]: 0 | Morningglory plant response rating [5, 19]: 30 | Plant response rating, Morningglory [5, 20]: 100 | Plant response rating, Morningglory [5, 15]: 20 | Plant response rating, Morningglory [5, 21]: 70 | Velvetleaf plant response rating [6, 19]: 100 | Plant response rating, Velvetleaf [6, 20]: 100 | Plant response rating, Velvetleaf [6, 15]: 30 | Plant response rating, Velvetleaf [6, 21]: 100 | Crabgrass, Large plant response rating [7, 19]: 40 | Plant response rating, Crabgrass, Large [7, 20]: 80 | Plant response rating, Crabgrass, Large [7, 15]: 40 | Plant response rating, Crabgrass, Large [7, 21]: 90 | Corn plant response rating [8, 19]: 0 | Plant response rating, Corn [8, 20]: 40 | Plant response rating, Corn [8, 15]: 0 | Plant response rating, Corn [8, 21]: 0 | Plant response rating, Flood, Barnyardgrass [9]: 0 | Plant response rating, Barnyardgrass [9, 22]: 0 | Plant response rating, Barnyardgrass [9, 23]: 0 | Plant response rating, Barnyardgrass [9, 17]: 0 | Plant response rating, Flood, Rice [10]: 0 | Plant response rating, Rice [10, 22]: 0 | Plant response rating, Rice [10, 23]: 0 | Plant response rating, Rice [10, 17]: 0 | Plant response rating, Flood, Ducksalad [11]: 60 | Plant response rating, Ducksalad [11, 22]: 0 | Plant response rating, Ducksalad [11, 23]: 20 | Plant response rating, Ducksalad [11, 17]: 30 | Plant response rating, Flood, Sedge, Umbrella [12]: 65 | Plant response rating, Sedge, Umbrella [12, 22]: 0 | Plant response rating, Sedge, Umbrella [12, 23]: 30 | Plant response rating, Sedge, Umbrella [12, 17]: 40
